# Data: patent US8785460B2, “Tricyclic compounds and use thereof” (Takeda Pharmaceutical Company Limited, priority 2008, dated 2014)
# Target: T1, human CRF1 receptor (Homo sapiens, UniProt P34998)
# T1 construct: expressed in transfected cells; host or cells: CHO cells (membrane fraction)
# T1 sequence (P34998 24-415): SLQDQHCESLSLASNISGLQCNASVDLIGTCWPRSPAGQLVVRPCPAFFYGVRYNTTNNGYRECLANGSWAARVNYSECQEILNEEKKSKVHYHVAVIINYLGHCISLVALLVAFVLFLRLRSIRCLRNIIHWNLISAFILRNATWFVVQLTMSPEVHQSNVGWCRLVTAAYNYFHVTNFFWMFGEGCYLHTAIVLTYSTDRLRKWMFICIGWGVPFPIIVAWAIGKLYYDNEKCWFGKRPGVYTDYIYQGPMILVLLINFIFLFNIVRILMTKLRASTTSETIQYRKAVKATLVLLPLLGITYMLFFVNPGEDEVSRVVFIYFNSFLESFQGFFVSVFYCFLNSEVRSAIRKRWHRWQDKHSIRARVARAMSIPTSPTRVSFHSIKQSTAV
# Assay: Measurement of CRF Binding Inhibitory Rate (receptor binding experiment with 125I-CRF)
# Details: human CRF1 receptor expressing CHO cellular membrane fraction, 50 pM 125I-CRF, room temperature 1.5 hr, 0.05 nM to 10 μM of compound; read-out: IC50 values (CRF binding inhibition)
# Procedure: Measurement of CRF Binding Inhibitory Rate
# A receptor binding experiment was carried out using a human CRF1 receptor expressing CHO cellular membrane fraction and ovine CRF, [^125I]-tyr^0(^125I-CRF). 1000 nM of a test compound was incubated with 1 μg of human CREF receptor expressing CHO cellular membrane fraction and 50 pM of ^125I-CRF in a binding assay buffer (50 mM Tris-HCl, 5 mM EDTA, 10 mM MgCl2, 0.05% CHAPS, 0.1% BSA, 0.5 mM PMSF, 0.1 μg/mL pepstatin, 20 μg/mL leupeptin, pH 7.5). In addition, for measuring nonspecific binding (NSB), 0.1 μM unlabelled human Urocortin was incubated with 5 μg of human CRE receptor expressing CHO cellular membrane fraction and 50 pM of ^125I-CRF in a binding assay buffer. After a binding reaction was carried out at room temperature for 1.5 hr, the membrane was entrapped on a glass filter (UniFilter plate GF-C/Perkin Elmer) by suction filtration using a cell harvester (Perkin Elmer), and washed with ice-cooled 50 mM Tris-HCl (pH 7.5). After drying the glass filter, a liquid scintillation cocktail (Microscinti 0, Perkin Elmer) was added, and the radioactivity of ^125I-CRF remaining on a glass filter was measured using Topcount (Perkin Elmer).
# (TB−SB)/(TB−NSB)×100 (SB: radioactivity when a compound is added, TB: maximum binding radioactivity, NSB: nonspecific binding radioactivity) were calculated to obtain binding inhibitory rates under the range of the presence from 0.05 nM to 10 μM of each compound. The IC50 values were calculated by using GraphPad Prism software.
row,Compound,IC50 [nM]
1,"CCC(OC(C)C)c1ccc(Cl)c2nc3n(c12)CCCN3c1ccc(Cl)cc1Cl (centres unmarked) [Example 237, 9-Chloro-1-(2,4-dichlorophenyl)-6-[1-(1-methylethoxy)propyl]-1,2,3,4-tetrahydropyrimido[1,2-a]benzimidazole]",< 1000
2,"COc1ccc(N2CCCn3c2nc2c(Cl)ccc(C(O)(C4CC4)C4CC4)c23)c(Cl)c1 [Example 465, [9-Chloro-1-(2-chloro-4-methoxyphenyl)-1,2,3,4-tetrahydropyrimido[1,2-a]benzimidazol-6-yl](dicyclopropyl)methanol]",< 1000
3,"CCC(CC)c1ccc(Cl)c2nc3n(c12)CCCCN3c1ncc(N)cc1C [Example 65, 6-[10-Chloro-7-(1-ethylpropyl)-2,3,4,5-tetrahydro-1H-[1,3]diazepino[1,2-a]benzimidazol-1-yl]-5-methylpyridin-3-amine]",< 1000
4,"CC/C(=N\OC(F)F)c1ccc(Cl)c2nc3n(c12)CCCN3c1c(Cl)cc(Cl)cc1Cl [Example 194, (1E)-1-[9-Chloro-1-(2,4,6-trichlorophenyl)-1,2,3,4-tetrahydropyrimido[1,2-a]benzimidazol-6-yl]propan-1-one O-(difluoromethyl)oxime]",< 1000
5,"CCN(CC)c1cccc2nc3n(c12)CCN=C3c1ccc(Cl)cc1Cl [Example 507, 1-(2,4-Dichlorophenyl)-N,N-diethyl-3,4-dihydropyrazino[1,2-a]benzimidazol-6-amine]",< 1000
6,"Cc1nc(C(N)=O)ccc1N1CCCn2c1nc1c(Cl)ccc(C(OC(F)F)C(F)(F)F)c12 (centres unmarked) [Example 293, 5-{9-Chloro-6-[1-(difluoromethoxy)-2,2,2-trifluoroethyl]-3,4-dihydropyrimido[1,2-a]benzimidazol-1(2H)-yl}-6-methylpyridine-2-carboxamide]",< 1000
7,"CCC(OC(C)=O)c1ccc(Cl)c2nc3n(c12)CCCN3c1cnc(OC)cc1C (centres unmarked) [Example 161, 1-[9-Chloro-1-(6-methoxy-4-methylpyridin-3-yl)-1,2,3,4-tetrahydropyrimido[1,2-a]benzimidazol-6-yl]propyl acetate]",< 1000
8,"CCC(OC1CC1)c1ccc(Cl)c2nc3n(c12)CCCN3c1ccc(OC)cc1Cl (centres unmarked) [Example 474, 9-Chloro-1-(2-chloro-4-methoxyphenyl)-6-[1-(cyclopropyloxy)propyl]-1,2,3,4-tetrahydropyrimido[1,2-a]benzimidazole]",< 1000
9,"CCC(CC)c1ccc(Cl)c2nc3n(c12)CCCCN3c1c(C)nn(C)c1C [Example 24, 10-Chloro-7-(1-ethylpropyl)-1-(1,3,5-trimethyl-1H-pyrazol-4-yl)-2,3,4,5-tetrahydro-1H-[1,3]diazepino[1,2-a]benzimidazole]",< 1000
10,"COc1ccc(N2CCCn3c2nc2c(Cl)ccc(C(OC)C(F)(F)F)c23)c(Cl)c1 (centres unmarked) [Example 471, 9-Chloro-1-(2-chloro-4-methoxyphenyl)-6-(2,2,2-trifluoro-1-methoxyethyl)-1,2,3,4-tetrahydropyrimido[1,2-a]benzimidazole]",< 1000
11,"CC(C)(C#N)c1ccc(Cl)c2nc3n(c12)CCCN3c1ccc(Cl)cc1Cl [Example 144, 2-[9-Chloro-1-(2,4-dichlorophenyl)-1,2,3,4-tetrahydropyrimido[1,2-a]benzimidazol-6-yl]-2-methylpropanenitrile]",< 1000
12,"CCC(CC)c1ccc(Cl)c2nc3n(c12)CCN3c1ccc(Cl)cc1C=O [Example 6, 5-Chloro-2-[8-chloro-5-(1-ethylpropyl)-2,3-dihydro-1H-imidazo[1,2-a]benzimidazol-1-yl]benzaldehyde]",< 1000
13,"CCC(OC(=O)C(C)(C)C)c1ccc(Cl)c2nc3n(c12)CCCN3c1ccc(Cl)cc1Cl (centres unmarked) [Example 481, 1-[9-Chloro-1-(2,4-dichlorophenyl)-1,2,3,4-tetrahydropyrimido[1,2-a]benzimidazol-6-yl]propyl 2,2-dimethylpropanoate]",< 1000
14,"CC(=O)NC(c1ccc(Cl)c2nc3n(c12)CCCN3c1ccc(Cl)cc1Cl)C(F)(F)F (centres unmarked) [Example 476, N-{1-[9-chloro-1-(2,4-dichlorophenyl)-1,2,3,4-tetrahydropyrimido[1,2-a]benzimidazol-6-yl]-2,2,2-trifluoroethyl}acetamide]",< 1000
15,"CCC(CC)c1ccc(Cl)c2nc3n(c12)CCCCN3c1ccc(C)cc1 [Example 32, 10-Chloro-7-(1-ethylpropyl)-1-(4-methylphenyl)-2,3,4,5-tetrahydro-1H-[1,3]diazepino[1,2-a]benzimidazole]",< 1000
16,"OC(c1ccc(Cl)c2nc3n(c12)CCCN3c1ccc(Cl)cc1Cl)C(F)(F)F (centres unmarked) [Example 307, 1-[9-Chloro-1-(2,4-dichlorophenyl)-1,2,3,4-tetrahydropyrimido[1,2-a]benzimidazol-6-yl]-2,2,2-trifluoroethanol]",< 1000
17,"OC(c1ccc(Cl)c2nc3n(c12)CCCOC3c1ccc(Cl)cc1Cl)(C1CC1)C1CC1 (centres unmarked) [Example 500, [10-Chloro-1-(2,4-dichlorophenyl)-4,5-dihydro-1H,3H-[1,4]oxazepino[4,3-a]benzimidazol-7-yl](dicyclopropyl)methanol]",< 1000
18,"COc1ccc(N2CCCn3c2nc2c(Cl)ccc(C(OCC(F)F)C4CC4)c23)c(Cl)c1 (centres unmarked) [Example 472, 9-Chloro-1-(2-chloro-4-methoxyphenyl)-6-[cyclopropyl(2,2-difluoroethoxy)methyl]-1,2,3,4-tetrahydropyrimido[1,2-a]benzimidazole]",< 1000
19,"CC/C(=N\OC)c1ccc(Cl)c2nc3n(c12)CCCN3c1ccc(Cl)cc1Cl [Example 121, (1E)-1-[9-Chloro-1-(2,4-dichlorophenyl)-1,2,3,4-tetrahydropyrimido[1,2-a]benzimidazol-6-yl]propan-1-one O-methyloxime]",< 1000
20,"CCOc1ccc(N2CCCn3c2nc2c(Cl)ccc(C(OC(F)F)=C(F)F)c23)c(C)n1 [Example 286, 9-Chloro-6-[1-(difluoromethoxy)-2,2-difluoroethenyl]-1-(6-ethoxy-2-methylpyridin-3-yl)-1,2,3,4-tetrahydropyrimido[1,2-a]benzimidazole]",< 1000
21,"CCC(CC)c1ccc(Cl)c2nc3n(c12)CCN3c1ccccc1Cl [Example 13, 8-Chloro-1-(2-chlorophenyl)-5-(1-ethylpropyl)-2,3-dihydro-1H-imidazo[1,2-a]benzimidazole]",< 1000
22,"CCC(OCCO)c1ccc(Cl)c2nc3n(c12)CCCN3c1ccc(Cl)cc1Cl (centres unmarked) [Example 242, 2-{1-[9-Chloro-1-(2,4-dichlorophenyl)-1,2,3,4-tetrahydropyrimido[1,2-a]benzimidazol-6-yl]propoxy}ethanol]",< 1000
23,"CCCC(O)c1ccc(Cl)c2nc3n(c12)CCCN3c1c(C)cc(Cl)cc1Cl (centres unmarked) [Example 140, 1-[9-Chloro-1-(2,4-dichloro-6-methylphenyl)-1,2,3,4-tetrahydropyrimido[1,2-a]benzimidazol-6-yl]butan-1-ol]",< 1000
24,"CCC(CC)c1ccc(Cl)c2nc3n(c12)CCN3c1ccc(Cl)cc1C#N [Example 18, 5-Chloro-2-[8-chloro-5-(1-ethylpropyl)-2,3-dihydro-1H-imidazo[1,2-a]benzimidazol-1-yl]benzonitrile]",< 1000
25,"CCC(CC)c1ccc(Cl)c2nc3n(c12)CCCCN3c1ccc(Br)cc1C [Example 43, 1-(4-Bromo-2-methylphenyl)-10-chloro-7-(1-ethylpropyl)-2,3,4,5-tetrahydro-1H-[1,3]diazepino[1,2-a]benzimidazole]",< 1000
26,"CCC(NC(C)=O)c1ccc(Cl)c2nc3n(c12)CCCN3c1c(C)cc(Cl)cc1Cl (centres unmarked) [Example 377, N-{1-[9-Chloro-1-(2,4-dichloro-6-methylphenyl)-1,2,3,4-tetrahydropyrimido[1,2-a]benzimidazol-6-yl]propyl}acetamide]",< 1000
27,"CCC(CC#N)c1ccc(Cl)c2nc3n(c12)CCCN3c1ccc(Cl)cc1Cl (centres unmarked) [Example 316, 3-[9-Chloro-1-(2,4-dichlorophenyl)-1,2,3,4-tetrahydropyrimido[1,2-a]benzimidazol-6-yl]pentanenitrile]",< 1000
28,"CCN(CC)c1ccc(Cl)c2nc3n(c12)CCCCN3c1ccc(Cl)cc1Cl [Example 98, 10-Chloro-1-(2,4-dichlorophenyl)-N,N-diethyl-2,3,4,5-tetrahydro-1H-[1,3]diazepino[1,2-a]benzimidazol-7-amine]",< 1000
29,"CCN(CC)c1ccc(Cl)c2nc3n(c12)CCOC3c1ccc(Cl)cc1Cl (centres unmarked) [Example 502, 9-Chloro-1-(2,4-dichlorophenyl)-N,N-diethyl-3,4-dihydro-1H-[1,4]oxazino[4,3-a]benzimidazol-6-amine]",< 1000
